One test relates to C2C12 muscle cells. Description: Measurement of protein synthesis in C2C12 cells (radio-labeled leucine incorporation). In kind it is cell-based. Conditions: for effect on protein synthesis in C2C12 muscle cells: 150 min incubation, radio-labeled leucine, versus DMSO control. As to the method: The cells are counted and seeded at the density of 20 000 cells per well in a 24-well plate in DMEM medium containing glucose in a proportion of 4.5 g/l and supplemented with fetal calf serum (10%) and with antibiotics (penicillin and streptomycin). Forty-eight hours layer, the myoblasts are induced to differentiate by partial serum deprivation (2% instead of 10%) for 5 days. The cells are then placed in medium without glucose or leucine (Krebs medium) for 1 h at 37° C., then incubated for 150 min in the presence of the products to be tested (DMSO (control), kynurenic acid or anthranilic acid or quinolinic acid or picolinic acid or 3OH-kynurenine) or reference (IGF-1, 100 ng/ml) in serum-free DMEM medium containing 2.5 μCi/ml radio-labeled leucine. At the end of the incubation, the supernatants are removed and the cells are lysed in 0.1N NaOH solution for 30 min. The radioactivity is measured in the cell fraction and the total amount of proteins is determined by assaying according to the Lowry method. Each condition is evaluated at least with n=6; IGF-1, 100 ng/ml is our control for stimulating protein synthesis. The results are expressed in cpm/μg of proteins after 150 min of incubation or as a percentage relative to the control condition. The results are expressed as % of the control and a statistical test is carried out: Dunnett's or Dun test (*p<0.05, **p<0.01, ***p<0.001 versus control). The results obtained with kynurenic acid, anthranilic acid, quinolinic acid, picolinic acid and 3OH-kynurenin are represented in FIGS. 1 to 5.

A further test relates to loss of muscle mass. To be noted: mice on a protein-poor diet, supplementation; cited from earlier work.
Test [1] has as its system myostatin gene expression in C2C12 muscle cells. Description: Measurement of myostatin gene expression in C2C12 cells (RT-qPCR). In kind it is cell-based. To be noted: 6 hours of incubation, standardized to beta-actin. The procedure:
The C2C12 myoblast cells (ATCC CRL-1772) are seeded in 24-well plates at the density of 30 000 cells per well and cultured in a DMEM medium containing glucose in a proportion of 4.5 g/l and supplemented with fetal calf serum (10%) and with antibiotics (penicillin and streptomycin). Forty-eight hours later, the myoblasts are induced to differentiate by partial serum deprivation (2% instead of 10%) for 5 days. The cells are then placed in a serum-free, glucose-depleted medium (DMEM containing 1 g/l of glucose) in the presence of the molecules to be tested (DMSO (control) or IGF-1 (100 ng/ml) or kynurenic acid) or of the references (IGF-1 at the concentration of 100 ng/ml) for 6 h. […] The samples analyzed all contain […] of cDNA, a qPCR buffer including the enzyme, the oligonucleotide mixture and the intercalating agent (sybergreen), and the pair of primers specific for the gene studied, strategically chosen between two exon sequences and at the final concentration of 200 nM. […] A fluorescence threshold is established by the program of the machine. […] It is this value which forms the basis for the calculations to relatively quantify the DNA. […] The primers used are given in table 1 below: At the end of the incubation, the expression of the myostatin gene is measured by RT-qPCR and standardized using the beta-actin housekeeping gene. […]
(Real-time PCR tracks product formation cycle by cycle.)

Another test deals with C2C12 muscle fibers. Description: Evaluation of the diameter of the C2C12 muscle fibers. Conditions: incubation for 3 days, 100 μM. It is filed as cell-based. The procedure:
The C2C12 myoblast cells (ATCC CRL-1772) are seeded in 8-well plates treated with glycerol, at the density of 10 000 cells per well and cultured in DMEM medium containing glucose in a proportion of 4.5 g/l and supplemented with fetal calf serum (10%) and with antibiotics (penicillin and streptomycin). Forty-eight hours layer, the myoblasts are induced to differentiate by partial serum deprivation (2% instead of 10%) for 3 days. The cells are then placed in a serum-free, glucose-depleted medium (DMEM containing 1 g/l of glucose) in the presence of the molecules to be tested (DMSO (control) or kynurenic acid) or the references (IGF-1 at the concentration of 10 ng/ml or dexamethasone at 10 μM) for 3 days. At the end of the culture, the cells are rinsed and fixed using a 2.5% glutaraldehyde/0.1% triton solution for 1 h at ambient temperature. The cell layer is covered with DAPI (fluorescent labeling of the cell nucleus). After storage in the dark for 16 h in the cold, the slides are observed under a fluorescence microscope (Carl Zeiss, AxioVert 200) and the images are analyzed using the Axiovision 4.1 software for measuring the diameter of the fibers. A representative image of each condition is shown. A statistical test is carried out: Dunnett's or Dun test (*p<0.05, **p<0.01, ***p<0.001 versus control). The results obtained with kynurenic acid are represented in FIG. 7.

In test [2] the test system is muscle atrophy induced by immobilization. The experiment in a line: Muscle atrophy induced by immobilization in mice. It is filed as in vivo. To be noted: CD1 mice, 7 days immobilization, 3 mg/kg per day in the drinking water, compared with control group. From the text:
Limb immobilization is known to induce skeletal muscle atrophy involving mechanisms linked to protein degradation, to a change in muscle fiber types, to oxidative stress or inflammatory mechanisms. Briefly, male 8-9-week-old CD1 mice were used in this study. The foot of the left hindlimb was immobilized for 7 days according to the procedure described by Caron et al. (2009), in the dorso-tibial flexion position, by means of a surgical staple. The other foot (right hindlimb) is used as a control. For the duration of the immobilization, one group of animals (n=12) received a treatment with kynurenic acid (3 mg/kg per day) in the drinking water. Another group of animals served as a control (n=16 animals). At the end of the 7 days of study, the animals were sacrificed in order to remove the Tibialis anterial muscle from the two hindlimbs. For each animal, the difference between the weight of the muscle of the immobilized limb and the free limb is calculated, then related back to the bodyweight. The results are expressed as weight loss of the immobilized limb relative to the control limb (in mg per g of body weight), and a statistical test is carried out: Student's test (*p<0.05, **p<0.01, ***p<0.001 versus control group).

With `Nc1c(O)cccc1C(=O)C[C@H](N)C(=O)O` [3OH-kynurenine, reference compound], the “effect on protein synthesis in C2C12 muscle cells” value (shortened to “effect on protein synthesis”) in the test on C2C12 muscle cells is on record as “no effect on protein synthesis”.

Consider `Nc1ccccc1C(=O)C[C@H](N)C(=O)O` [L-kynurenine], for which, in the test on loss of muscle mass, the “effect on loss of muscle mass” value is recorded as “varies according to the dose tested (beneficial or negative)”.

For the molecule `N[C@@H](Cc1c[nH]c2ccccc12)C(=O)O` [TRP, Tryptophan], the “effect on loss of muscle mass” value with loss of muscle mass was “capable of reducing the loss of muscle mass”.

Regarding `Nc1ccccc1C(=O)O` [anthranilic acid], the “effect on protein synthesis” value in the test with C2C12 muscle cells was “significantly induce protein synthesis”.

For the molecule `O=C(O)c1cc(=O)c2ccccc2[nH]1` [kynurenic acid], in the test on C2C12 muscle cells, the “effect on protein synthesis” value is recorded as “significantly induce protein synthesis”. Also, the “dose dependence of stimulation of protein synthesis” value in the test with C2C12 muscle cells (after 150 min of incubation) is “dose-dependent stimulation of protein synthesis”. The myostatin gene expression entry in test [1] is recorded as “significant dose-dependent inhibition”. In the test with C2C12 muscle fibers, the “size (diameter) of the C2C12 muscle fibers” value is “increase in the size of the C2C12 muscle fibers”. The “loss of muscle (Tibialis anterior) mass induced by immobilization” value in test [2] is reported as “significantly decreases the loss of muscle”.

Consider `O=C(O)c1ccccn1` [picolinic acid], for which the “effect on protein synthesis” value with C2C12 muscle cells is recorded as “significantly induce protein synthesis”.

As to `O=C(O)c1cccnc1C(=O)O` [quinolinic acid], in the test on C2C12 muscle cells, the “effect on protein synthesis” value is on record as “significantly induce protein synthesis”.

The values are drawn from patent US11369595B2, “Use of tryptophan metabolites for treating muscle atrophy” (METABRAIN RESEARCH, priority 2016, dated 2022).
